{"source": "patent US10413559B2", "about": "“Method for treating demyelinating disease” (OCHANOMIZU UNIVERSITY, priority 2013, dated 2019)", "key": {"[1]": {"tested_on": "demyelination model mice (0.2% cuprizone), corpus callosum", "test": "Electron microscope observation of myelin structure in corpus callosum", "type": "in vivo, C57BL/6j mice", "settings": "intraperitoneal 1.6 mg/kg/day for 5 weeks, FIG. 5", "text": "10-week-old male C57BL/6j mice (Tokyo Laboratory Animals Science Co., Ltd., Tokyo, Japan) were fed by the discretionary intake of a mash feed (CLEA Japan, Inc.) that contained 0.2% cuprizone (biscyclohexanone oxalyl hydrazone; Merck KGaA, Darmstadt, Germany) for 5 weeks until demyelination progressed most, so as to produce demyelination model mice involving demyelination caused by oligodendrocyte-specific cell death.\nThe cPA used in the experiment was the same cPA (16:0) as that used in Example 1, and the carba-cPA was 2 ccPA (16:1). The cPA and 2 ccPA were chemically purified (Biochimica et Biophysica Acta, Emi Nozaki 2011), and were then dissolved in a 0.9% saline. The cPA and 2 ccPA were continuously administered to mice via intraperitoneal administration for 5 weeks (1.6 mg/kg/day), at the same time with administration of cuprizone. Control mice were fed with a normal mash feed, and a normal saline was continuously administered to the control mice via intraperitoneal administration for 5 weeks.\nFive weeks after administration of cuprizone, mice were subjected to perfusion fixation with 4% paraformaldehyde, and the brain was then collected from each mouse. Thereafter, corpus callosum tissues were removed from the brain, were then pre-fixed with 2.5% glutaraldehyde fixative, and were then washed with a 0.1 M cacodylate buffer. […]"}, "[2]": {"tested_on": "demyelination model mice (0.2% cuprizone)", "test": "Test of motor function impairment using rotarod", "type": "in vivo, C57BL/6j mice", "settings": "intraperitoneal 1.6 mg/kg/day for 5 weeks, 28 rpm, 300 seconds, FIG. 9, FIG. 10", "text": "10-week-old male C57BL/6j mice (Tokyo Laboratory Animals Science Co., Ltd., Tokyo, Japan) were fed by the discretionary intake of a mash feed (CLEA Japan, Inc.) that contained 0.2% cuprizone (biscyclohexanone oxalyl hydrazone; Merck KGaA, Darmstadt, Germany) for 5 weeks until demyelination progressed most, so as to produce demyelination model mice involving demyelination caused by oligodendrocyte-specific cell death. The cPA used in the experiment was the same cPA (16:0) as that used in Example 1, and the carba-cPA was 2 ccPA (16:1). The cPA and 2 ccPA were chemically purified (Biochimica et Biophysica Acta, Emi Nozaki 2011), and were then dissolved in a 0.9% saline. […] The locomotion time on the rod was evaluated by measuring the time required for the mice to fall from the rotating rod within a record time of 300 seconds. Moreover, even after the mice had fallen from the rod, they were forced to continue their activity immediately after the falling, so that a total number of the activities from falling from the rod to holding on to the rod for 300 seconds (a number of falls and flips) was measured and evaluated. The data of the test of motor function impairment were analyzed according to a non-parametric method using a Kruskal-Wallis test. All of other data were analyzed according to a one-way ANOVA method using a Newman-Keulis test. […]"}}, "data": [{"smiles": "CCCCCCCCCCCCCCCC(=O)OCC1COP(=O)(O)O1", "note": "(centres unmarked) [cPA]", "values": [{"measurement": "demyelination by electron microscope observation of myelin structure", "setting": "[1]", "result": "demyelination is suppressed"}, {"measurement": "motor function impairment (rotarod)", "setting": "[2]", "result": "motor function impairment is improved"}]}]}
